Data set [1] relates to blood pressure in the carotid artery. Kind of data set: animal or person. The following applies: for ED20: Rattus norvegicus, iv, read-out: Blood pressure-lowering action ED 20%; for animals died: 10 mg/kg, rats. The protocol: 2. Blood pressure-lowering action on narcotized rats.
The blood pressure in the carotid artery is measured by means of a Statham transducer.
(2) Intravenous administration to rats under urethane narcosis. ED 20% =
dose, in mg/kg, which lowers the blood pressure by 20%.

The nature of a further data set: in vivo. The following applies: for LD 50 / toxicity compared with propranolol (in words): i.p., mice. An excerpt:
4. Acute toxicity in mice
The period of observation is 1 week.
(4) Intraperitoneal administration to mice.

Data set [2] deals with isoproterenol-induced tachycardia. The following applies: for ED50: Felis catus, read-out: β-Sympatholytic action ED 50%; for ED50 / β-Sympatholytic action R.A. (relative activity): iv; for β-sympatholytic activity (in words) / β-Sympatholytic action R.A. (relative activity): in vivo.
In the next data set the test system is systolic blood pressure. Kind of data set: Anti-hypertensive action on spontaneously hypertonic rats (oral). The class given is in vivo, male spontaneously hypertonic Okamoto rats. The procedure:
3. Anti-hypertensive action on spontaneously hypertonic rats.
The substances are administered orally to groups of 8 male spontaneously hypertonic Okamoto rats (weight 280-350 g). Before, and two hours after, the administration the systolic blood pressure is measured non-surgically on the rats' tails by means of piezoelectric crystal sensors.

Data set [3] concerns blood pressure in the carotid artery. The following applies: general statement, no test or species given; cited from earlier work.
Where [4] appears, read: 0.001 mg/kg i.v., cats under hexobarbital narcosis, average.

Take `Cc1cc(C=Cc2ccccc2OCC(O)CNC(C)C)on1` (stereo not drawn) [Example 1, 3-Methyl-5-[2-(2-hydroxy-3-isopropyl-aminopropoxy)-styryl]-isoxazole]: the ED20 in data set [1] worked out at 0.65 mg/kg. Further, the “LD 50 / toxicity compared with propranolol (in words)” value in “in vivo” is reported as “of the same toxicity, or somewhat more toxic”. Moreover, in data set [2], the ED50 is 0.0077 mg/kg and the “β-sympatholytic activity (in words)” value was “high activity”.

As for `Cc1cc(C=Cc2ccccc2OCC(O)CNC(C)(C)C)on1` (stereo not drawn) [Example 3, 3-Methyl-5-[2-(2-hydroxy-3-tert.-butylaminopropoxy)-styryl]-isoxazole], the ED20 in data set [1] was 0.4 mg/kg; in the data set on systolic blood pressure (Rattus norvegicus, po, 2 h, read-out: Anti-hypertensive action ED 20%), 14.5 mg/kg. In addition, the animals died in data set [1] (i.v.) is given as 1 out of 6. Also, the “Blood pressure-lowering action ED 20%” value in data set [1] (i.v., rats under urethane narcosis, dose lowering mean carotid artery pressure by 20%) was 0.40 mg/kg. In “in vivo”, the “LD 50 / toxicity compared with propranolol (in words)” value was “somewhat higher than that of propranolol”. The ED50 in data set [2] was determined as 0.0055 mg/kg.

The LD50 is the dose expected to kill half of the subjects tested. A lower LD50 goes with a more toxic substance. For the compound `CCc1cc(C=Cc2ccccc2OCC(O)CNC2CC2)on1` (stereo not drawn) [Example 5, 3-Ethyl-5-[2-(2-hydroxy-3-cyclopropylaminopropoxy)-styryl]-isoxazole], the ED20 in data set [1] was 0.83 mg/kg. Further, the “LD 50 / toxicity compared with propranolol (in words)” value in the data set “in vivo” was “of the same toxicity, or somewhat more toxic”. In the data set “in vivo” (mouse, in vivo, ip), this compound yielded a median lethal dose (LD50) at 168 h of 95 mg/kg. Moreover, in data set [2], the ED50 stood at 0.12 mg/kg and the “β-Sympatholytic action R.A. (relative activity)” value was determined as 0.9.

For the compound `CCc1cc(C=Cc2ccccc2OCC(O)CNC(C)(C)C)on1` (stereo not drawn) [Example 6, 3-Ethyl-5-[2-(2-hydroxy-3-tert.-butylaminopropoxy)-styryl]-isoxazole], the ED20 in data set [1] came out at 0.93 mg/kg. For the same compound, the “LD 50 / toxicity compared with propranolol (in words)” value in the data set “in vivo” was “of the same toxicity, or somewhat more toxic”. For the same compound, in data set [2], the ED50 is 0.018 mg/kg, the “β-sympatholytic activity (in words)” value is recorded as “high activity” and the “β-Sympatholytic action R.A. (relative activity)” value is 6.1.

On to `C#CC(C)(C)NCC(O)COc1ccccc1C=Cc1cc(C)no1` (stereo not drawn) [Example 13, 3-Methyl-5-[2-(2-hydroxy-3-(3-methyl-but-1-ynyl-3-amino)-propoxy)-styryl]-isoxazole], for which the ED20 in data set [1] came to 1 mg/kg. Moreover, in the data set “in vivo”, the “LD 50 / toxicity compared with propranolol (in words)” value is on record as “more than twice as high as that of propranolol”. Moreover, in data set [2], the ED50 came to 0.017 mg/kg and the “β-Sympatholytic action R.A. (relative activity)” value was determined as 6.5.

For `CC(C)NCC(O)COc1cccc2ccccc12` (stereo not drawn) [Propranolol, reference compound], the animals died in data set [1] (i.v.) is given as 2 out of 6. Further, the “anti-hypertensive action, oral (in words)” value with systolic blood pressure (oral, spontaneously hypertonic rats, propranolol up to a dose of 100 mg/kg) is on record as “ineffective”. The “anti-hypertensive action of conventional β-sympatholytic agents (in words)” value in data set [3] is given as “only exhibit an anti-hypertensive action on lengthy administration”. Moreover, in data set [2], the ED50 worked out at 0.11 mg/kg.

Turning to `CC(C)NCC(O)c1ccc(O)c(O)c1` (stereo not drawn) [isoproterenol, reference compound], in data set [2] (setting [4]), the “increase of pulse rate” value came out at 61 beats and the “increase of pulse rate, percent” value is 40%.
